Molecular target: T1, human vasopressin V2 receptor subtype (Homo sapiens, UniProt P30518)
T1 construct: host or cells: CHO cells, stably transfected (pZeoSV vector); membranes
Test: Vasopressin binding in CHO cell membranes expressing human vasopressin V2 subtype receptors ([3H]arginine vasopressin)
Details: 100 nM, values without parentheses
Excerpt: Vasopressin Binding in Chinese Hamster Ovary Cell Membranes Expressing Human Vasopressin V2 Subtype Receptors
Chinese Hamster Ovary (CHO) cells stably transfected with the human V2 subtype receptors were obtained from M. Thibonnier, Case Western Reserve University School of Medicine, Cleveland, Ohio.
A. Passaging and Amplification of Cells:
CHO cells transfected with the human vasopressin V2 subtype receptors obtained from M. Thibonnier (pZeoSV vector) are allowed to grow to confluency (approx. >90%) in T-150 flasks under sterile conditions, in a cell culture medium of F-12 Nutrient Mixture (HAM) with L-glutamine (Gibco Cat. #11765-054) containing 15 mM HEPES (Gibco Cat. #15630-080), 1% antibiotic/antimycotic (add 5 mL 100×, Gibco Cat. #15240-062 per 500 mL F-12), 250 μg/mL Zeocin (add 1.25 mL of 100 mg/mL Invitrogen R-250-01 per 500 mL F-12) and 10% Fetal Bovine Serum (Qualified, heat inactivated, Gibco Cat. #16140-063). The medium is removed by aspiration and the cells washed with 10 mL of Hank's Balanced Salt solution (Gibco Cat. #14175-095). The salt solution is removed by aspiration and the cells trypsinized with 5 mL of trypsin-EDTA (0.05% trypsin, 0.53 mM EDTA-4Na, Gibco Cat. #25300-070) for 1 min. The trypsin is removed by aspiration and the cells dislodged by tapping. Cell Culture medium (e.g. 30 mL for 1:30 split) is immediately added and mixed well to inactivate trypsin. 1 mL of detached cells is added to new culture flasks containing fresh Cell Culture medium (e.g. into 25 mL per T-150 flask), and mixed gently. The cells are incubated at 37° C. in 5% CO2. The medium is changed at 3 to 4 day interval (or as appropriate). The cells grow to confluency (approx. >75%–95%) within 7–8 days. All steps are done under sterile conditions. B. Membrane Preparation: The cells are washed twice gently with Hank's Balanced Salt solution (e.g. use 10 mL per T-150 flask). The excess solution is removed and the cells bathed for 15–30 min. in an enzyme-free Cell Dissociation Buffer (e.g. use 8 mL Hank's Based, Gibco Cat. # 13150-016 per T-150 flask) until cells are loosened. The contents are transferred to centrifuge tubes (50 mL size) kept in ice bath. All subsequent steps are done at 4° C. The tubes are centrifuged at 300×g for 15 min (1380 rpm on SORVAL, Model RT6000D, using rotor for 50 mL tubes). The supernatant is discarded and the cells suspended in homogeneizing buffer (10 mM Tris-HCl containing 0.25 M sucrose and 1 mM EDTA, pH 7.4) ensuring that the volume of the buffer is about ten times the volume of the cell pellet. The cells are pooled into a centrifuge tube (50 mL) and homogenized with Polytron at setting 6 for 10 sec. The homogenate is transferred into a Potter-Elvjehm homogeneizer and homogenized with 3 strokes. The homogenate is centrifuged at 1500×g for 60 min at 4° C. (3100 rpm using SORVAL, model RT6000D, using rotor for 50 mL tubes). The pellet is discarded. The supernatant is centrifuged at 100,000×g for 60 min. at 4° C. (Beckman L8-80M ultracentrifuge; spin at 37,500 rpm with rotor type 70 Ti for 50 mL tubes; 38,000 rpm with type 80Ti for 15 mL tubes; or 35,800 rpm with rotor type 45Ti). The supernantant is discarded and the pellet suspended in 3 to 4 mL of Tris buffer (50 mM TRIS-HCl, pH 7.4). The protein content is estimated by the Bradford or Lowry method. The volume of the membrane suspension is adjusted with the membrane buffer (50 mM Tris-HCl containing 0.1% BSA and 0.1 mM PMSF) to give 3.0 mg/mL (or as appropriate) of protein. The membranes are aliquoted and stored at −70° C. C. Radioligand Binding Assay:
In wells of a 96-well format microtiter plate, is added 90, 110 or 130 μL (to make up a final volume of 200 μL) of assay buffer containing 50 mM of Tris-HCl (pH 7.4), […], 1 mg % aprotinin, 1 mg % leupeptin, 2 mg % 1,10-phenanthroline, 10 mg % trypsin inhibitor, and 0.1 mM PMSF. The inhibitors are added on the day of the experiment. […]

T1 sequence (P30518 whole entry): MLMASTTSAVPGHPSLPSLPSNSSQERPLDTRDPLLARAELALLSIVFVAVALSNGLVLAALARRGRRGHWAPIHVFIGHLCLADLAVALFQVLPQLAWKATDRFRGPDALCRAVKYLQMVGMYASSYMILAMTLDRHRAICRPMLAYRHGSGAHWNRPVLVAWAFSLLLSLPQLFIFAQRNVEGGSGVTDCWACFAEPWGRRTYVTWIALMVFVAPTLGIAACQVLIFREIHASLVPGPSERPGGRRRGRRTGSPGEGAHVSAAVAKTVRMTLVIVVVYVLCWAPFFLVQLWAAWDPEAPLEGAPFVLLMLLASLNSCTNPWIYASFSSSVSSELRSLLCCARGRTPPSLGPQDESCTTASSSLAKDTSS

SMILES	inhibition at 0.1 µM
O=C1C=C(c2ccc(C(=O)N3Cc4cccn4Cc4ccccc43)cc2)CCC1 [Example 24, 3-[4-(10,11-Dihydro-5H-pyrrolo[2,1-c][1,4]benzodiazepine-10-carbonyl)-phenyl]-cyclohex-2-en-1-one]	29%
O=C(c1ccc(C2=CC(O)CCC2)cc1)N1Cc2cccn2Cc2ccccc21 (stereo not shown) [Example 25, (10,11-Dihydro-5H-pyrrolo[2,1-c][1,4]benzodiazepin-10-yl)-[4-(3-hydroxy-cyclohex-1-en-1-yl)-phenyl]-methanone]	39%
CC1=C(c2ccc(C(=O)N3Cc4cccn4Cc4ccccc43)cc2)CCCC1=O [Example 26, 3-[4-(10,11-Dihydro-5H-pyrrolo[2,1-c][1,4]benzodiazepine-10-carbonyl)-phenyl]-2-methyl-cyclohex-2-en-1-one]	58%
CC1=C(c2ccc(C(=O)N3Cc4cccn4Cc4ccccc43)cc2)CCCC1O (stereo not shown) [Example 27, (10,11-Dihydro-5H-pyrrolo[2,1-c][1,4]benzodiazepin-10-yl)-[4-(3-hydroxy-2-methyl-cyclohex-1-en-1-yl)-phenyl]-methanone]	58%
Cc1cc(C(=O)N2Cc3cccn3Cc3ccccc32)ccc1C1=CCCCC1C (stereo not shown) [Example 29, (10,11-Dihydro-5H-pyrrolo[2,1-c][1,4]benzodiazepin-10-yl)-[3-methyl-4-(6-methyl-cyclohex-1-en-1-yl)-phenyl]-methanone]	13%
Cc1cc(C(=O)N2Cc3cccn3Cc3ccccc32)ccc1C1=CCCCC1(C)C [Example 30, (10,11-Dihydro-5H-pyrrolo[2,1-c][1,4]benzodiazepin-10-yl)-[4-(6,6-dimethyl-cyclohex-1-en-1-yl)-3-methyl-phenyl]-methanone]	13%
CC1=C(c2ccc(C(=O)N3Cc4cccn4Cc4ccccc43)cc2C)C(C)CCC1 (stereo not shown) [Example 33, (10,11-Dihydro-5H-pyrrolo[2,1-c][1,4]benzodiazepin-10-yl)-[4-(2,6-dimethyl-cyclohex-1-en-1-yl)-3-methyl-phenyl]-methanone]	0%
Cc1cc(C(=O)N2Cc3cccn3Cc3ccccc32)ccc1C1=CCCCC1C(C)(C)C (stereo not shown) [Example 34, (10,11-Dihydro-5H-pyrrolo[2,1-c][1,4]benzodiazepin-10-yl)-[4-(6-tert-butyl-cyclohex-1-en-1-yl)-3-methyl-phenyl]-methanone]	4%
Cc1cc(C(=O)N2Cc3cccn3Cc3ccccc32)ccc1C1=CCC2CCC1C2 (stereo not shown) [Example 35, (10,11-Dihydro-5H-pyrrolo[2,1-c][1,4]benzodiazepin-10-yl)-(4-bicyclo[3.2.1]oct-2-en-2-yl-3-methyl-phenyl)-methanone]	18%
Cc1cc(C(=O)N2Cc3cccn3Cc3ccccc32)ccc1C1=CCC2CC1C2(C)C (stereo not shown) [Example 36, (10,11-Dihydro-5H-pyrrolo[2,1-c][1,4]benzodiazepin-10-yl)-[4-(6,6-dimethyl-bicyclo[3.1.1]hept-2-en-2-yl)-3-methyl-phenyl]-methanone]	3%
Cc1cc(C(=O)N2Cc3cccn3Cc3ccccc32)ccc1C1=CC(C)(C)CC(C)(C)C1 [Example 37, (10,11-Dihydro-5H-pyrrolo[2,1-c][1,4]benzodiazepin-10-yl)-[3-methyl-4-(3,3,5,5-tetramethyl-cyclohex-1-en-1-yl)-phenyl]-methanone]	20%
COc1cccc(C2=C(c3ccc(C(=O)N4Cc5cccn5Cc5ccccc54)cc3C)CCCC2)c1 [Example 38, (10,11-Dihydro-5H-pyrrolo[2,1-c][1,4]benzodiazepin-10-yl)-{4-[2-(3-methoxy-phenyl)-cyclohex-1-en-1-yl]-3-methyl-phenyl}-methanone]	-9%
Cc1cc(C(=O)N2Cc3cccn3Cc3ccccc32)ccc1C1=CC(=O)CCC1 [Example 39, 3-[4-(10,11-Dihydro-5H-pyrrolo[2,1-c][1,4]benzodiazepine-10-carbonyl)-2-methyl-phenyl]-cyclohex-2-en-1-one]	38%
Cc1cc(C(=O)N2Cc3cccn3Cc3ccccc32)ccc1C1=CC(O)CCC1 (stereo not shown) [Example 40, (10,11-Dihydro-5H-pyrrolo[2,1-c][1,4]benzodiazepin-10-yl)-[4-(3-hydroxy-cyclohex-1-en-1-yl)-3-methyl-phenyl]-methanone]	48%
CO[C@@H]1CCCC(c2ccc(C(=O)N3Cc4cccn4Cc4ccccc43)cc2C)=C1C [Example 44, 10-{4-[(3R)-3-Methoxy-2-methylcyclohex-1-en-1-yl]-3-methylbenzoyl}-10,11-dihydro-5H-pyrrolo[2,1-c][1,4]benzodiazepine]	86%
CC1=C(c2ccc(C(=O)N3Cc4cccn4Cc4ccccc43)cc2C)CCCC1N (stereo not shown) [Example 45, [4-(3-Amino-2-methyl-cyclohex-1-en-1-yl)-3-methyl-phenyl]-(10,11-dihydro-5H-pyrrolo[2,1-c][1,4]benzodiazepin-10-yl)-methanone]	27%
